Test results reported in patent US8349835B2, “Aromatic ring fused triazine derivatives and uses thereof” (Shenyang Pharmaceutical University, priority 2008, dated 2013).

These compounds were tested against VEGFR-2 (Homo sapiens, UniProt P35968) (assay: VEGFR-2 inhibition rate test (kinase assay kit, colorimetric ELISA)). Details: concentration not given.
Sequence of VEGFR-2 (P35968 20-1356): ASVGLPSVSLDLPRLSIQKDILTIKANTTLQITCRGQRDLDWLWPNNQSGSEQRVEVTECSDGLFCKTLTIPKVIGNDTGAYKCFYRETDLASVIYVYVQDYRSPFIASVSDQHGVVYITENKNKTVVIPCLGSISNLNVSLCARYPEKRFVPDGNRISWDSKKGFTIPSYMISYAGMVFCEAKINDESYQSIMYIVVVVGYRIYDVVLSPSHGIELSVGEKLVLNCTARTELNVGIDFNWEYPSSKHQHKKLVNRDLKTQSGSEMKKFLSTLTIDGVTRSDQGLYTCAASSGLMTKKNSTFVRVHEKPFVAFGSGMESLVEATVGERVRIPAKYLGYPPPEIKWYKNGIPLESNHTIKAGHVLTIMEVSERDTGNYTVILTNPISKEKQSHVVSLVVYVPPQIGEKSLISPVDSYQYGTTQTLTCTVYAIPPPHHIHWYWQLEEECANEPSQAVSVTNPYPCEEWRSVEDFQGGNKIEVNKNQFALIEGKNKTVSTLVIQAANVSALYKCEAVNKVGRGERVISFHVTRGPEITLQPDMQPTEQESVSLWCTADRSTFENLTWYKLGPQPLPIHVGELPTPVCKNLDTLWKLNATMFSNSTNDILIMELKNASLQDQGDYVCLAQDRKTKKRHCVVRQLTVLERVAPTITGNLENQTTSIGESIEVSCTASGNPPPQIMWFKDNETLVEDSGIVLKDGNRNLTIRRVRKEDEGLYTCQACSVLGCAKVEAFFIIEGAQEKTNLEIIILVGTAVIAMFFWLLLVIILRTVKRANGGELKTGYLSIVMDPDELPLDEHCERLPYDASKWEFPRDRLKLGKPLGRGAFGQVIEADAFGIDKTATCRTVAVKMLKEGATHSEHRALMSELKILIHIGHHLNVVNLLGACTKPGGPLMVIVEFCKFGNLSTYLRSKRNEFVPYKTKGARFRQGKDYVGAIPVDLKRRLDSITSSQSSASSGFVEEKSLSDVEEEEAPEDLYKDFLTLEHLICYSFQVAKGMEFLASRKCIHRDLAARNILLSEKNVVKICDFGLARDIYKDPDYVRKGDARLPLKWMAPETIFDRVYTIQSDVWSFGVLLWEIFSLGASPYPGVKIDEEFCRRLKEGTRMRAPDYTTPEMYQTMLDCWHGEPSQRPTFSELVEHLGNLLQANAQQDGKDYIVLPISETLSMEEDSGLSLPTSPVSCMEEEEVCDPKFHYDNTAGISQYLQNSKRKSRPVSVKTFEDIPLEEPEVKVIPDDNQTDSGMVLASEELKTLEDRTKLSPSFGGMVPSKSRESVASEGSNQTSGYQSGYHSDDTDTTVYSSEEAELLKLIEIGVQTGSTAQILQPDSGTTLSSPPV

Row | SMILES | Kinase inhibition rate (VEGFR-2)
1 | Fc1ccc(Nc2nnnc3ccccc23)cc1Cl [Example 1, 4-(3-chloro-4-fluoroanilino)-benzo[d][1,2,3]triazine] | 3.47
2 | Fc1ccc(Nc2nnnc3ccccc23)cc1 [Example 2, 4-(4-fluoroanilino)-benzo[d][1,2,3]triazine] | −22.99
3 | Fc1cc(F)cc(Nc2nnnc3ccccc23)c1 [Example 5, 4-(3,5-difluoroanilino)-benzo[d][1,2,3]triazine] | −5.34
4 | Fc1cc(Nc2nnnc3ccccc23)ccc1Br [Example 8, 4-(3-fluoro-4-bromoanilino)-benzo[d][1,2,3]triazine] | −6.95
5 | Fc1ccc(Nc2nnnc3ccccc23)cc1C(F)(F)F [Example 9, 4-(3-trifluoromethyl-4-fluoroanilino)-benzo[d][1,2,3]triazine] | 1.60
6 | Clc1cc(Cl)cc(Nc2nnnc3ccccc23)c1 [Example 10, 4-(3,5-dichloroanilino)-1,2,3-benzotriazine] | −2.67
7 | CCCCOc1cc2nnnc(Nc3ccccc3)c2cc1OC [Example 11, 6-methoxy-7-butoxy-4-anilino-benzo[d][1,2,3]triazine] | −4.27
8 | CCCCOc1cc2nnnc(Nc3ccc(Br)c(F)c3)c2cc1OC [Example 12, 6-methoxy-7-n-butoxy-4-(3-fluoro-4-bromoanilino)-benzo[d][1,2,3]triazine] | 9.09
9 | CCCCOc1cc2nnnc(Nc3cc(F)cc(F)c3)c2cc1OC [Example 14, 6-methoxy-7-n-butoxy-4-(3,5-difluoroanilino)-benzo[d][1,2,3]triazine] | −0.80
10 | CCCCOc1cc2nnnc(Nc3ccc(Cl)cc3)c2cc1OC [Example 16, 6-methoxy-7-n-butoxy-4-(4-chloroanilino)-benzo[d][1,2,3]triazine] | −12.03
11 | CCCCOc1cc2nnnc(Nc3cccc(C(F)(F)F)c3)c2cc1OC [Example 17, 6-methoxy-7-n-butoxy-4-(3-trifluoromethylanilino)-benzo[d][1,2,3]triazine] | −5.34
12 | CCCCOc1cc2nnnc(Nc3ccc(C(F)(F)F)cc3)c2cc1OC [Example 18, 6-methoxy-7-n-butoxy-4-(4-trifluoromethylanilino)-benzo[d][1,2,3]triazine] | 3.20
13 | CCCCOc1cc2nnnc(Nc3ccc(F)cc3)c2cc1OC [Example 26, 6-methoxy-7-n-butoxy-4-(4-fluoroanilino)-benzo[d][1,2,3]triazine] | 9.89
14 | CCOc1cc2nnnc(Nc3ccccc3)c2cc1OC [Example 28, 6-methoxy-7-ethoxy-4-anilino-benzo[d][1,2,3]triazine] | 45.98
15 | CCOc1cc2nnnc(Nc3ccc(C)cc3)c2cc1OC [Example 43, 6-methoxy-7-ethoxy-4-(4-methylanilino)-benzo[d][1,2,3]triazine] | 43.56
16 | CCCCCOc1cc2nnnc(Nc3ccccc3)c2cc1OC [Example 44, 6-methoxy-7-pentyloxy-4-anilino-benzo[d][1,2,3]triazine] | −22.45
17 | CCCCCOc1cc2nnnc(Nc3cc(Cl)cc(Cl)c3)c2cc1OC [Example 46, 6-methoxy-7-pentyloxy-4-(3,5-dichloroanilino)-benzo[d][1,2,3]triazine] | −0.53
18 | CCCCCOc1cc2nnnc(Nc3cccc(OC(F)(F)F)c3)c2cc1OC [Example 52, 6-methoxy-7-pentyloxy-4-(3-trifluoromethoxyanilino)-benzo[d][1,2,3]triazine] | 2.13
19 | CCCCCOc1cc2nnnc(Nc3cccc(Cl)c3)c2cc1OC [Example 54, 6-methoxy-7-pentyloxy-4-(3-chloroanilino)-benzo[d][1,2,3]triazine] | 3.20
20 | CCCCCOc1cc2nnnc(Nc3ccccc3F)c2cc1OC [Example 57, 6-methoxy-7-pentyloxy-4-(2-fluoroanilino)-benzo[d][1,2,3]triazine] | 10.42
21 | CCCCCOc1cc2nnnc(Nc3cccc(Br)c3)c2cc1OC [Example 58, 6-methoxy-7-pentyloxy-4-(3-bromoanilino)-benzo[d][1,2,3]triazine] | −5.61
22 | CCCCCOc1cc2nnnc(Nc3ccc(C)cc3)c2cc1OC [Example 60, 6-methoxy-7-pentyloxy-4-(4-methylanilino)-benzo[d][1,2,3]triazine] | 7.75
23 | COc1cc2c(Nc3cc(F)cc(F)c3)nnnc2cc1OCCCCl [Example 64, 6-methoxy-7-chloropropoxy-4-(3,5-difluoroanilino)-benzo[d][1,2,3]triazine] | 10.73
24 | COc1cc2c(Nc3cccc(Cl)c3)nnnc2cc1OCCCCl [Example 71, 6-methoxy-7-chloropropoxy-4-(3-chloroanilino)-benzo[d][1,2,3]triazine] | 21.14

What follows are compounds tested on Rat aortic ring (assay: Rat Aortic Ring Assay). Details: Rattus norvegicus; 10 ug/ml, compared with blank control, sixth day.
Type: cell-based
Excerpt: Rat Aortic Ring Assay • 1) 6 week old SD […] (Sprague Dawley) were selected for the experiments. Cleaned abdominal skin with 75% ethanol to disinfect, and then anesthetized the mice with ether, • 2) Carefully removed the abdominal aortas and transferred the aortas to normal saline. Excessive vascular tissues were carefully removed with scissors. • 3) The aortas were rinsed with normal saline until no blood stain remained. • 4) Sectioned the aortas into one millimeter depth arterial slices with ophthalmological scissors. • 5) Add 50 μL pre-thawed Matrigel to each well of the pre-cooled 96 well cell culture plates, and embedded the ring-shaped mouse aortas in collagen gel. • 6) Incubated for 60 minutes at 37° C. to solidificate the gel. • 7) Added DMEM culture solution containing 10% FBS, along with different concentrations of the selected compounds into the wells and cultured in the incubator. Every compound was repeated in no less than 3 wells. • 8) Replaced with the fresh medium and changed the medicine once on the third day. • 9) Took out the pates on the sixth day, and observed the vascular growth with Microscope (OLYMPUS, DP70, Japan) and took photographs(×100). Randomly chose 3 arterial rings to photograph and calculated the area covered by micro-vascular with Image Pro Plus software. The inhibition rate is calculated as:
[formula] • Evaluation criteria: ⋆inhibition rate[…]; ⋆⋆inhibition rate 60-90%; ⋆⋆⋆inhibition rate>90%.

Row | SMILES | inhibition at 10 µg/mL
25 | CCOc1cc2nnnc(Nc3ccccc3)c2cc1OC [Example 28, 6-methoxy-7-ethoxy-4-anilino-benzo[d][1,2,3]triazine] | ~40%
26 | CCOc1cc2nnnc(Nc3ccc(C(F)(F)F)cc3)c2cc1OC [Example 35, 6-methoxy-7-ethoxy-4-(4-trifluoromethylanilino)-benzo[d][1,2,3]triazine] | ~40%
27 | COc1cc2c(Nc3cc(F)cc(F)c3)nnnc2cc1OCCCCl [Example 64, 6-methoxy-7-chloropropoxy-4-(3,5-difluoroanilino)-benzo[d][1,2,3]triazine] | > 50%

Same assay, conditions: compared with blank control, sixth day

Row | SMILES | Rat Aortic Ring Assay (10 ug/ml), inhibition
28 | COc1cc2c(Nc3ccc(F)c(Cl)c3)nnnc2cc1OCCCN1CCN(C)CC1.Cl [Example 96, 6-methoxy-7-(3-N-methylpiperazin-1-yl-propoxy)-4-(3-chloro-4-fluoroanilino)-benzo[d][1,2,3]triazin-4-amine hydrochloride] | Vessel formation became less, about 30% inhibition

Same assay, conditions: observed on the sixth day

Row | SMILES | Rat Aortic Ring Assay (10 ug/ml), result in words
29 | CCCCOc1cc2nnnc(Nc3cccc(C(F)(F)F)c3)c2cc1OC [Example 17, 6-methoxy-7-n-butoxy-4-(3-trifluoromethylanilino)-benzo[d][1,2,3]triazine] | No significant inhibition compared with the blank control
30 | CCCCOc1cc2nnnc(Nc3ccc(C(F)(F)F)cc3)c2cc1OC [Example 18, 6-methoxy-7-n-butoxy-4-(4-trifluoromethylanilino)-benzo[d][1,2,3]triazine] | No significant inhibition
31 | CCOc1cc2nnnc(Nc3ccc(C)cc3)c2cc1OC [Example 43, 6-methoxy-7-ethoxy-4-(4-methylanilino)-benzo[d][1,2,3]triazine] | No significant inhibition
32 | COc1cc2c(Nc3ccc(F)c(Cl)c3)nnnc2cc1OCCCN1CCOCC1 [Example 94, 6-methoxy-7-(3-morpholinopropoxy)-4-(3-chloro-4-fluoroanilino)-benzo[d][1,2,3]triazine] | No significant inhibition
33 | COc1cc2c(Nc3ccc(F)c(Cl)c3)nnnc2cc1OCCCN1CCCCC1.Cl [Example 95, 6-methoxy-7-(3-(piperidin-1-yl)-propoxy)-4-(3-chloro-4-fluoroanilino)-benzo[d][1,2,3]triazine hydrochloride] | Vascular growth was significantly inhibited, vascular ring was dead.
